Test results from US8048927B2 (Besins Healthcare Luxembourg, priority 2004, dated 2011).

What was measured:
[1] = pharmacokinetics of 4-hydroxy tamoxifen gel in healthy premenopausal women (Example 3); type: in vivo, human; conditions: for Plasma concentration of 4-hydroxy tamoxifen, Mean ± SD / T(1stC < LOQ), first timepoint at which the plasma concentration was below the limit of quantification, Mean ± SD / Plasma concentration of 4-hydroxy tamoxifen, Range / AUC0-24, Mean ± SD / Cav = AUC0-24/24, Mean ± SD / Cmax, Mean ± SD / t1/2, Range / tmax, Mean ± SD: gel 57 mg/100 g; for T(1stC < LOQ), first timepoint at which the plasma concentration was below the limit of quantification, Mean ± SD: after last administration; for AUC0-24, Mean ± SD / Cav = AUC0-24/24, Mean ± SD / Cmax, Mean ± SD / t1/2, Range / tmax, Mean ± SD: last administration, day 25 of second cycle
Description: At the end of a menstrual cycle, each patient received a single dose, after which serial blood samples were collected at 0, 0.5, 1, 1.5, 2, 3, 4, 6, 12, 18, 24, 36, 48, and 72 hours.

[2] = tested on: rat liver; conditions: in vivo; cited from earlier work
[3] = human, in vivo
Description: The patients received [^3H]-labeled drug applied directly on the affected breasts at specified intervals ranging from 12 hours to 7 days before surgery to excise diseased tissue. Breast tissue from three regions: the tumor, tissue immediately surrounding the tumor, and normal tissue, was excised and immediately frozen in liquid nitrogen. Additionally, plasma and urine samples were obtained at scheduled intervals and frozen until analysis.

[4] = tolerance of 4-hydroxy tamoxifen gel in healthy premenopausal women (Example 3)
Description: Each participant applied the gel daily for the duration of two menstrual cycles.
On the first day of the following menstruation, treatment, which consisted of daily application of the gel over two menstrual cycles, began. Blood samples were collected 24 hours following the morning application of gel on days 7, 20 and 25 of the first and second cycles. On the last day of administration, day 25 of the second menstrual cycle, serial blood samples were collected prior to application and at 0.5, 1, 1.5, 2, 3, 4, 6, 12, 18, 24, 36, 48, and 72 hours after application of the gel.

[5] = in vivo; cited from earlier work
[6] = tested on: estrogen receptors; conditions: in vitro; cited from earlier work

CCC(=C(c1ccc(O)cc1)c1ccc(OCCN(C)C)cc1)c1ccccc1 [4-hydroxy tamoxifen, 1-[4-(2-N-dimethylaminoethoxy)phenyl]-1-(4-hydroxyphenyl)-2-phenylbut-1-ene]
Plasma concentration of 4-hydroxy tamoxifen, Mean ± SD ([1]; 1 mg/day, Second cycle Day 25, 1.5 hr after application): 0.0256 ± 0.0178 ng/mL | Plasma concentration of 4-hydroxy tamoxifen, Mean ± SD ([1]; 1 mg/day, Second cycle Day 25, 2 hr after application): 0.0251 ± 0.018 ng/mL | Plasma concentration of 4-hydroxy tamoxifen, Mean ± SD ([1]; 1 mg/day, Second cycle Day 25, 3 hr after application): 0.0248 ± 0.0205 ng/mL | Plasma concentration of 4-hydroxy tamoxifen, Mean ± SD ([1]; 1 mg/day, Second cycle Day 25, 4 hr after application): 0.0268 ± 0.0233 ng/mL | Plasma concentration of 4-hydroxy tamoxifen, Mean ± SD ([1]; 1 mg/day, Second cycle Day 25, 6 hr after application): 0.025 ± 0.0182 ng/mL | Plasma concentration of 4-hydroxy tamoxifen, Mean ± SD ([1]; 1 mg/day, Second cycle Day 25, 12 hr after application): 0.0283 ± 0.0229 ng/mL | Plasma concentration of 4-hydroxy tamoxifen, Mean ± SD ([1]; 1 mg/day, Second cycle Day 25, 18 hr after application): 0.0234 ± 0.0174 ng/mL | Plasma concentration of 4-hydroxy tamoxifen, Mean ± SD ([1]; 1 mg/day, Second cycle Day 26, 24 hr after last application): 0.026 ± 0.0196 ng/mL | Plasma concentration of 4-hydroxy tamoxifen, Mean ± SD ([1]; 1 mg/day, Second cycle Day 26, 36 hr after last application): 0.0257 ± 0.0184 ng/mL | Plasma concentration of 4-hydroxy tamoxifen, Mean ± SD ([1]; 1 mg/day, Second cycle Day 27, 48 hr after last application): 0.022 ± 0.016 ng/mL | Plasma concentration of 4-hydroxy tamoxifen, Mean ± SD ([1]; 1 mg/day, Second cycle Day 28, 72 hr after last application): 0.0189 ± 0.0124 ng/mL | T(1stC < LOQ), first timepoint at which the plasma concentration was below the limit of quantification, Mean ± SD ([1]; 1 mg/day): 236 ± 72 h | Plasma concentration of 4-hydroxy tamoxifen, Mean ± SD ([1]; 1 mg/day, after the second cycle, +5 days): 0.0114 ± 0.0082 ng/mL | Plasma concentration of 4-hydroxy tamoxifen, Range ([1]; 1 mg/day, after the second cycle, +8 days): (0-14.8) pg/mL | AUC0-24, Mean ± SD ([1]; 1 mg/day): 0.619 ± 0.466 ng·h/mL | Cav = AUC0-24/24, Mean ± SD ([1]; 1 mg/day): 0.0258 ± 0.0194 ng/mL | Cmax, Mean ± SD ([1]; 1 mg/day): 0.0351 ± 0.0224 ng/mL | t1/2, Range ([1]; 1 mg/day): (58-118) hr | tmax, Mean ± SD ([1]; 1 mg/day): 12.8 ± 14.9 h | Plasma concentration of 4-hydroxy tamoxifen, Range ([1]; 2 mg/day, First cycle Day 1, 0 hr): (0-0) pg/mL | Plasma concentration of 4-hydroxy tamoxifen, Mean ± SD ([1]; 2 mg/day, First cycle Day 7, 24 hr after application): 0.0269 ± 0.0182 ng/mL | Plasma concentration of 4-hydroxy tamoxifen, Mean ± SD ([1]; 2 mg/day, First cycle Day 20, 24 hr after application): 0.044 ± 0.0292 ng/mL | Plasma concentration of 4-hydroxy tamoxifen, Mean ± SD ([1]; 2 mg/day, First cycle Day 25, 24 hr after application): 0.0454 ± 0.031 ng/mL | Plasma concentration of 4-hydroxy tamoxifen, Mean ± SD ([1]; 2 mg/day, Second cycle Day 7, 24 hr after application): 0.0422 ± 0.0248 ng/mL | Plasma concentration of 4-hydroxy tamoxifen, Mean ± SD ([1]; 2 mg/day, Second cycle Day 20, 24 hr after application): 0.0389 ± 0.0271 ng/mL | Plasma concentration of 4-hydroxy tamoxifen, Mean ± SD ([1]; 2 mg/day, Second cycle Day 25, 0 hr (24 hours after Day 24 application, prior to final application)): 0.0432 ± 0.0277 ng/mL | Plasma concentration of 4-hydroxy tamoxifen, Mean ± SD ([1]; 2 mg/day, Second cycle Day 25, 0.5 hr after application): 0.0445 ± 0.0299 ng/mL | Plasma concentration of 4-hydroxy tamoxifen, Mean ± SD ([1]; 2 mg/day, Second cycle Day 25, 1 hr after application): 0.0405 ± 0.0251 ng/mL | Plasma concentration of 4-hydroxy tamoxifen, Mean ± SD ([1]; 2 mg/day, Second cycle Day 25, 1.5 hr after application): 0.0368 ± 0.0211 ng/mL | Plasma concentration of 4-hydroxy tamoxifen, Mean ± SD ([1]; 2 mg/day, Second cycle Day 25, 2 hr after application): 0.0368 ± 0.0216 ng/mL | Plasma concentration of 4-hydroxy tamoxifen, Mean ± SD ([1]; 2 mg/day, Second cycle Day 25, 3 hr after application): 0.0361 ± 0.0206 ng/mL | Plasma concentration of 4-hydroxy tamoxifen, Mean ± SD ([1]; 2 mg/day, Second cycle Day 25, 4 hr after application): 0.0381 ± 0.0212 ng/mL | Plasma concentration of 4-hydroxy tamoxifen, Mean ± SD ([1]; 2 mg/day, Second cycle Day 25, 6 hr after application): 0.041 ± 0.0291 ng/mL | Plasma concentration of 4-hydroxy tamoxifen, Mean ± SD ([1]; 2 mg/day, Second cycle Day 25, 12 hr after application): 0.0451 ± 0.0306 ng/mL | Plasma concentration of 4-hydroxy tamoxifen, Mean ± SD ([1]; 2 mg/day, Second cycle Day 25, 18 hr after application): 0.0398 ± 0.0255 ng/mL | Plasma concentration of 4-hydroxy tamoxifen, Mean ± SD ([1]; 2 mg/day, Second cycle Day 26, 24 hr after last application): 0.044 ± 0.033 ng/mL | Plasma concentration of 4-hydroxy tamoxifen, Mean ± SD ([1]; 2 mg/day, Second cycle Day 26, 36 hr after last application): 0.0421 ± 0.0315 ng/mL | Plasma concentration of 4-hydroxy tamoxifen, Mean ± SD ([1]; 2 mg/day, Second cycle Day 27, 48 hr after last application): 0.0381 ± 0.0253 ng/mL | Plasma concentration of 4-hydroxy tamoxifen, Mean ± SD ([1]; 2 mg/day, Second cycle Day 28, 72 hr after last application): 0.0332 ± 0.0222 ng/mL | T(1stC < LOQ), first timepoint at which the plasma concentration was below the limit of quantification, Mean ± SD ([1]; 2 mg/day): 326 ± 97 h | Plasma concentration of 4-hydroxy tamoxifen, Mean ± SD ([1]; 2 mg/day, after the second cycle, +5 days): 0.0204 ± 0.0173 ng/mL | Plasma concentration of 4-hydroxy tamoxifen, Mean ± SD ([1]; 2 mg/day, after the second cycle, +8 days): 0.0108 ± 0.0134 ng/mL | Plasma concentration of 4-hydroxy tamoxifen, Range ([1]; 2 mg/day, after the second cycle, +12 days): (0-30.4) pg/mL | AUC0-24, Mean ± SD ([1]; 2 mg/day): 0.998 ± 0.653 ng·h/mL | Cav = AUC0-24/24, Mean ± SD ([1]; 2 mg/day): 0.0416 ± 0.0272 ng/mL | Cmax, Mean ± SD ([1]; 2 mg/day): 0.0516 ± 0.0317 ng/mL | t1/2, Range ([1]; 2 mg/day): (49-101) hr | tmax, Mean ± SD ([1]; 2 mg/day): 11.8 ± 12.3 h | plasma concentrations after the last gel application ([1]; 72 hours after the last gel application): remained detectable | plasma concentrations of 4-hydroxy tamoxifen after a single dose ([1]; single 0.5 mg dose): did not produce detectable plasma concentrations | patients with detectable plasma concentrations (>5 pg/mL) ([1]; single dose of 1 mg): 6 of 12 | plasma concentrations of 4-hydroxy tamoxifen compared with typical estradiol concentrations ([1]; topical application, 0.5-2 mg/day): < 0.08 ng/mL | rat liver carcinogenicity [2]: not | metabolism in cytosolic and nuclear fractions of breast tissue [3]: remained unmetabolized except for limited isomerization from the Z to the E form | retention in the breast [3]: approximately 4 days | subcellular distribution in breast tissue [3]: concentrated predominantly in the cytosolic and nuclear fractions of breast tissue | patients who developed an allergic reaction to the gel ([4]; 36 patients): One | patients who reported facial acne ([4]; 36 patients, 5 had a past history of acne): 10 | biological tolerance ([4]; all 36 patients, daily gel over two menstrual cycles): excellent | effect on FSH, LH, estradiol, or progesterone hormone levels ([4]; during the menstrual cycles): did not affect | echographic examination of the ovaries ([4]; end of treatment, all patients): normal in all patients | laboratory or clinical evidence of systemic effects ([4]; topical application): no detectable laboratory or clinical evidence of systemic effects | breast tissue concentration by site of application [5]: concentrated at higher amounts in breast tissue when the gel was applied directly to the breasts | potency versus tamoxifen, as measured by binding affinity to estrogen receptors [6]: more potency than tamoxifen
